Columns and labels:
[1] = system: AR 1.0 cells; experiment: Drug accumulation assay: daunorubicin accumulation in AR 1.0 cells; format: cell-based; settings: Mus musculus, 100% = accumulation with verapamil 100 μM, 1 hr, 37° C.
Method in brief: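 AR 1.0 is the MDR-resistant subline of EMT6 mouse mammary carcinoma, grown in RPMI 1640 with 10% foetal calf serum and 2 mM glutamine at 37 °C, 5% CO2. Cells were seeded 48 h before the daunorubicin accumulation assay.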

[2] = system: AR 1.0 cells; experiment: Potentiation index with doxorubicin titration; format: cell-based, mouse; settings: for Potentiation Index at RMA concentration 300 nM: Table C2, RMA 300 nM; for Potentiation Index at RMA concentration 500 nM: Table C2, RMA 500 nM; for Potentiation Index at RMA concentration 30 nM: Table C2, RMA 30 nM; for Potentiation Index at RMA concentration 100 nM: Table C2, RMA 100 nM; for Potentiation Index at RMA concentration 10 nM: Table C2, RMA 10 nM
Method in brief: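 MDR-resistant mouse EMT6 subline AR 1.0 grown four days with a doxorubicin titration (0.263 nM-17.24 μM) plus a fixed compound concentration; proliferation by sulphorhodamine B. Potentiation index derived from doxorubicin IC50 alone versus with compound.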

[3] = system: AR 1.0 cells; experiment: Potentiation of doxorubicin toxicity: proliferation assay (sulphorhodamine B); format: cell-based, mouse
Source text: (a) Selected compounds of formula (I) were examined for their ability to potentiate the toxicity of doxorubicin in AR 1.0 cells.

[4] = Mus musculus, 96 h, compound alone, four day proliferation, read-out: Compound Toxicity (IC50)
[5] = with fixed doxorubicin 0.34 μm, four days, 5760 min, read-out: Toxicity with Cytotoxic Agent (IC50)

Question: What does the source list for COc1cc2c(cc1OC)CN(CCc1ccc(NC(=O)c3ccccc3NC(=O)c3ccccc3C)cc1)CC2 [compound 9497, 2-(2-Methyl-benzoylamino)-N-{4-[2-(6,7-dimethoxy-3,4-dihydro-1H-isoquinolin-2-yl}-ethyl]-phenyl}-benzamide]?
Answer: IC50 [1]: 1600 nM; Potentiation Index at RMA concentration 300 nM [2]: 52; Potentiation Index at RMA concentration 500 nM [2]: 200; IC50 [3, 4]: 9000 nM; IC50 [3, 5]: 80 nM

Question: Which IC50 [1] does the source give for COc1cc2c(cc1OC)CN(CCc1ccc(NC(=O)c3ccccc3NC(=O)c3cccc(Cl)c3)cc1)CC2 [compound 9495, 2-(3-chloro-benzoylamino)-N-{4-[2-(617-dimethoxy-3,4-dihydro-1H-isoquinolin-2-yl)-ethyl]-phenyl}-benzamide] here?
Answer: 500 nM

Question: And the “Potentiation Index at RMA concentration 30 nM” value [2]?
Answer: 1.3

Question: And the “Potentiation Index at RMA concentration 100 nM” value [2]?
Answer: 15

Question: And the “Potentiation Index at RMA concentration 300 nM” value [2]?
Answer: 261

Question: And the “Potentiation Index at RMA concentration 500 nM” value [2]?
Answer: 567

Question: What about the IC50 [3, 4] of the same compound?
Answer: 4000 nM

Question: Which results are given for COc1cc2c(cc1OC)CN(CCc1ccc(NC(=O)c3ccccc3NC(=O)c3cnc4c(c3)CCCC4)cc1)CC2 [compound 9590, 5,6,7,8-Tetrahydroquinoline-3-carboxylic acid (2-{4-[2-(6,7-dimethoxy-3,4-dihydro-1H-isoquinolin-2-yl)-ethyl]-phenylcarbamoyl}-phenyl)-amide]?
Answer: IC50 [1]: 97 nM; Potentiation Index at RMA concentration 10 nM [2]: 2; Potentiation Index at RMA concentration 30 nM [2]: 14; IC50 [3, 4]: 9500 nM

Question: What does the source list for COc1cc2c(cc1OC)CN(CCNC(=O)c1ccccc1NC(=O)c1ccc(OCc3ccccc3)cc1)CC2 [compound 9460, 2-(4-Benzyloxy-benzoylamino)-N-[2-(6,7-dimethoxy-3,4-dihydro-1H-isoquinolin-2-yl)-ethyl]-benzamide]?
Answer: IC50 [1]: 1000 nM; Potentiation Index at RMA concentration 300 nM [2]: 18; Potentiation Index at RMA concentration 500 nM [2]: 36; IC50 [3, 4]: 7500 nM; IC50 [3, 5]: 180 nM

Question: Which results are given for COc1cc2c(cc1OC)CN(CCc1ccc(NC(=O)c3cc(F)ccc3NC(=O)c3cnc4ccccc4c3)cc1)CC2 [compound 9574, Quinoline-3-carboxylic acid (2-{4-[2-(6,7-dimethoxy-3,4-dihydro-1H-isoquinolin-2-yl)-ethyl]-phenylcarbamoyl}-4-fluoro-phenyl)-amide]?
Answer: IC50 [1]: 19 nM; Potentiation Index at RMA concentration 10 nM [2]: 16; Potentiation Index at RMA concentration 30 nM [2]: 60; Potentiation Index at RMA concentration 100 nM [2]: 94; IC50 [3, 4]: 320 nM

Question: Which results are given for COc1cc2c(cc1OC)CN(CCc1ccc(NC(=O)c3cc4c(cc3NC(=O)c3cnc5ccccc5c3)OCO4)cc1)CC2 [compound 9578, Quinoline-3-carboxylic acid (6-{4-[2-(6,7-dimethoxy-3,4-dihydro-1H-isoquinolin-2-yl)-ethyl]-phenylcarbamoyl}-benzo[1,3]dioxoi-5-yl)-amide]?
Answer: IC50 [1]: 84 nM; Potentiation Index at RMA concentration 10 nM [2]: 43; Potentiation Index at RMA concentration 30 nM [2]: 188; IC50 [3, 4]: 900 nM

Question: Which results are given for COc1cc2c(cc1OC)CN(CCc1ccc(NC(=O)c3ccccc3NC(=O)c3cccc4ccccc34)cc1)CC2 [compound 9470]?
Answer: IC50 [1]: 1300 nM; Potentiation Index at RMA concentration 300 nM [2]: 26; Potentiation Index at RMA concentration 500 nM [2]: 90; IC50 [3, 4]: 3500 nM; IC50 [3, 5]: 75 nM

Question: COc1cc2c(cc1OC)CN(CCc1ccc(NC(=O)c3cc(C)ccc3NC(=O)c3cnc4ccccc4n3)cc1)CC2 [compound 9543, Quinoxaline-2-carboxylic acid (2-{4-[2-(6,7-dimethoxy-3,4-dihydro-1H-isoquinolin-2-yl)-ethyl]-phenylcarbamoyl}-4-methyl-phenyl)-amide] was tested. Which IC50 [1] did it give?
Answer: 70 nM

Question: And the “Potentiation Index at RMA concentration 10 nM” value [2]?
Answer: 24

Question: What about the “Potentiation Index at RMA concentration 30 nM” value [2] of the same compound?
Answer: 120

Question: And the “Potentiation Index at RMA concentration 100 nM” value [2]?
Answer: 150

Question: What about the “Potentiation Index at RMA concentration 300 nM” value [2] of the same compound?
Answer: 150

Question: What about the IC50 [3, 4] of the same compound?
Answer: 900 nM

Question: And the IC50 [3, 5]?
Answer: 8 nM
